Measurements as given in patent US20250230193A1, “CYCLIC COMPOUND HAVING SELECTIVE KRAS INHIBITORY EFFECT ON HRAS AND NRAS” (CHUGAI SEIYAKU KABUSHIKI KAISHA, priority 2022, published 2025).
Where a SMILES comes first, the peptide text is derived from it. Bridges are numbered along the chain shown (N, C = ends). [ ]: non-standard residue; d: D form. The star is where a group is joined. hPhe(3-Cl-4-CF3) = N[C@@H](CCc1ccc(C(F)(F)F)c(Cl)c1)C(=O)O; NEtPhe(4-Me) = CCN[C@@H](Cc1ccc(C)cc1)C(=O)O; NMeGly(cPent) = CN[C@H](C(=O)O)C1CCCC1; NMeD = CN[C@@H](CC(=O)O)C(=O)O; Morpholide = C1CN(*)CCO1; NMeA = CN[C@@H](C)C(=O)O; Ac5c = NC1(C(=O)O)CCCC1; Sar = CNCC(=O)O

Legend:
[1] = biological target: GDP-bound NRAS wild-type protein (Homo sapiens, UniProt P01111); test: Binding to NRAS by surface plasmon resonance (SPR), Single Cycle Kinetics; conditions: SPR
[2] = biological target: GDP-bound HRAS wild-type protein (Homo sapiens, UniProt P01112); test: Binding to HRAS by surface plasmon resonance (SPR), Single Cycle Kinetics; conditions: SPR
[3] = KD ratio, GDP-bound NRAS wild-type vs GDP-bound KRAS wild-type
[4] = KD ratio, GDP-bound HRAS wild-type vs GDP-bound KRAS wild-type

GDP-bound HRAS wild-type protein, sequence (P01112 whole entry): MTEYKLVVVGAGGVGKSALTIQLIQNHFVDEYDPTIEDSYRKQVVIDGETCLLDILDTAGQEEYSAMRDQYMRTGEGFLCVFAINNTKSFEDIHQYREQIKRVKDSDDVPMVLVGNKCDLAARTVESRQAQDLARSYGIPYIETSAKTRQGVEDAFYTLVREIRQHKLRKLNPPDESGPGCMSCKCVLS
GDP-bound NRAS wild-type protein, sequence (P01111 whole entry): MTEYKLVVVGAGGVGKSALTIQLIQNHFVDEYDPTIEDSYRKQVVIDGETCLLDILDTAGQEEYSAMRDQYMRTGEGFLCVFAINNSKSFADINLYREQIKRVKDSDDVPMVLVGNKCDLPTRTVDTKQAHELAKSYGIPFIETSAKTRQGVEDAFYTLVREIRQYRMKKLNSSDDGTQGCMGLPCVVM

## CCO[C@@H]1C[C@H]2C(=O)NC3(CC(C)(C)C3)C(=O)N(C)[C@@H](C3CCCC3)C(=O)N(C)[C@H](C(=O)N(C)CC)CC(=O)N(C)[C@@H](CC)C(=O)N[C@@H]([C@@H](C)CC)C(=O)N(C)CC(=O)N(C)[C@H]3C/C=C\CCN(C3=O)[C@@H](Cc3ccc(C)cc3)C(=O)N(C)CC(=O)N[C@@H](CCc3ccc(C(F)(F)F)c(Cl)c3)C(=O)N2C1 [PP1880]
[1]; [3]
  NRAS/KRAS (ratio of KD value for NRAS to KD value for KRAS): A (a compound having 10 or more and less than 20 is denoted as A)
[2]; [4]
  HRAS/KRAS (ratio of KD value for HRAS to KD value for KRAS): B (a compound having 3 or more and less than 10 is denoted as B)

## CC[C@H](C)[C@@H]1NC(=O)[C@H](CC(C)C)N(C)C(=O)C[C@@H](C(=O)N2CCOCC2)N(C)C(=O)[C@H](C2CCCC2)N(C)C(=O)C2(CCCC2)NC(=O)[C@H](C)N(CC)C(=O)[C@H](CCc2cc(F)c(C(F)(F)F)c(F)c2)NC(=O)CN(C)C(=O)[C@H](Cc2ccc(C(F)(F)F)cc2)N2CCCC[C@@H](C2=O)N(C)C(=O)CN(C)C1=O [PP0589]
[1]; KD ratio NRAS/KRAS
  NRAS/KRAS (ratio of KD value with respect to GDP-bound NRAS wild-type protein to KD value with respect to KRAS): B (a compound having 3 or more and less than 10 is denoted as B)
[2]; KD ratio HRAS/KRAS
  HRAS/KRAS (ratio of KD value with respect to GDP-bound HRAS wild-type protein to KD value with respect to KRAS): B (a compound having 3 or more and less than 10 is denoted as B)

## CCO[C@@H]1C[C@H]2C(=O)NC3(CCC3)C(=O)N(C)[C@@H](C3CCCC3)C(=O)N(C)[C@H](C(=O)N(C)C)CC(=O)N(C)[C@@H](CC(C)C)C(=O)N[C@@H]([C@@H](C)CC)C(=O)N3CC[C@H]3C(=O)N(C)[C@H]3CC(C)=CCN(C3=O)[C@@H](Cc3ccc(C(F)(F)F)cc3)C(=O)N(C)CC(=O)N[C@@H](CCc3cc(F)c(C(F)(F)F)c(F)c3)C(=O)N2C1 [PP1033]
[1]; [3]
  NRAS/KRAS (ratio of KD value with respect to NRAS to KD value with respect to KRAS): C (A compound having a KD ratio of 0.1 or more and less than 3 is denoted as C)
[2]; [4]
  HRAS/KRAS (ratio of KD value with respect to HRAS to KD value with respect to KRAS): C (A compound having a KD ratio of 0.1 or more and less than 3 is denoted as C)

## CC[C@H](C)[C@@H]1NC(=O)[C@H](C)N(C)C(=O)C[C@@H](C(=O)N2CCOCC2)N(C)C(=O)[C@H](C2CCCC2)N(C)C(=O)C2(CCCC2)NC(=O)[C@@H]2CCCN2C(=O)[C@H](CCc2ccc(C(F)(F)F)c(Cl)c2)NC(=O)CN(C)C(=O)[C@H](Cc2ccc(C)cc2)N(CC)C(=O)CN(C)C(=O)CN(C)C1=O [PP0031] ([NMeA]I[Sar][Sar][NEtPhe(4-Me)][Sar][hPhe(3-Cl-4-CF3)]P[Ac5c][NMeGly(cPent)][NMeD]-Morpholide; lactam N-11)
[1]; KD ratio NRAS/KRAS
  NRAS/KRAS (ratio of KD for GDP-bound NRAS wild-type to KD for KRAS): B (a compound having 3 or more and less than 10 is denoted as B)
[2]; KD ratio HRAS/KRAS
  HRAS/KRAS (ratio of KD for GDP-bound HRAS wild-type to KD for KRAS): C (A compound having a KD ratio of 0.1 or more and less than 3 is denoted as C)

## CCCO[C@H](C)[C@@H]1NC(=O)[C@H](CC(C)C)N(C)C(=O)C[C@@H](C(=O)N(C)CC)N(C)C(=O)[C@H](C2CCCC2)N(C)C(=O)C2(CC(C)(C)C2)NC(=O)[C@@H]2C[C@H](C)CN2C(=O)[C@H](CCc2cc(F)c(C(F)(F)F)c(F)c2)NC(=O)CN(C)C(=O)[C@H](Cc2ccc(C)cc2)N2CC/C=C\C[C@@H](C2=O)N(C)C(=O)CN(C)C1=O [PP2417]
[1]; GDP-bound NRAS wild-type vs GDP-bound KRAS wild-type
  NRAS/KRAS (ratio of KD value with respect to NRAS to KD value with respect to KRAS): A (a compound having 10 or more and less than 20 is denoted as A)
[2]; GDP-bound HRAS wild-type vs GDP-bound KRAS wild-type
  HRAS/KRAS (ratio of KD value with respect to HRAS to KD value with respect to KRAS): A (a compound having 10 or more and less than 20 is denoted as A)

## CC[C@H](C)[C@@H]1NC(=O)[C@H](CC(C)C)N(C)C(=O)C[C@@H](C(=O)N2C3CCC2COC3)N(C)C(=O)[C@H](C2CCCC2)N(C)C(=O)C2(CCCC2)NC(=O)[C@@H]2CCCN2C(=O)[C@H](CCc2cc(F)c(C(F)(F)F)c(F)c2)NC(=O)CN(C)C(=O)[C@H](Cc2ccc(C(F)(F)F)cc2)N2CCCC[C@@H](C2=O)N(C)C(=O)CN(C)C1=O [PP0573]
[1]; KD ratio NRAS/KRAS
  NRAS/KRAS (ratio of KD value with respect to GDP-bound NRAS wild-type protein to KD value with respect to KRAS): B (a compound having 3 or more and less than 10 is denoted as B)
[2]; KD ratio HRAS/KRAS
  HRAS/KRAS (ratio of KD value with respect to GDP-bound HRAS wild-type protein to KD value with respect to KRAS): B (a compound having 3 or more and less than 10 is denoted as B)

## CCO[C@@H]1C[C@H]2C(=O)NC3(CCCC3)C(=O)N(C)[C@@H](C3CCCC3)C(=O)N(C)[C@H](C(=O)N3CCOCC3)CC(=O)N(C)[C@@H](CC)C(=O)N[C@@H]([C@@H](C)CC)C(=O)N(C)CC(=O)N(C)[C@H]3CC(C)=CCN(C3=O)[C@@H](Cc3ccc(C(F)(F)F)cc3)C(=O)N(C)CC(=O)N[C@@H](CCc3cc(F)c(C(F)(F)F)c(F)c3)C(=O)N2C1 [PP1043]
[1]; [3]
  NRAS/KRAS (ratio of KD value with respect to NRAS to KD value with respect to KRAS): C (A compound having a KD ratio of 0.1 or more and less than 3 is denoted as C)
[2]; [4]
  HRAS/KRAS (ratio of KD value with respect to HRAS to KD value with respect to KRAS): C (A compound having a KD ratio of 0.1 or more and less than 3 is denoted as C)
